Data from publication PMC3071364, “Collagenolytic Activities of the Major Secreted Cathepsin L Peptidases Involved in the Virulence of the Helminth Pathogen, Fasciola hepatica” (PLoS Neglected Tropical Diseases, 2011).
Like-named read-outs stand apart in the source and are kept apart here. Where a SMILES comes first, the peptide text is derived from it. The star is where a group is joined. AMC = Cc1cc(=O)oc2cc(N*)ccc12; Tos = Cc1ccc(S(=O)(=O)*)cc1; Cbz = O=C(OCc1ccccc1)*; Boc = CC(C)(C)OC(=O)*

Assays:
FhCL3 [1] = target: T1, FhCL3 (Fasciola hepatica, UniProt B3TM67); test: Hydrolysis of fluorogenic peptidyl-NHMec substrates by recombinant FhCL3; type: biochemical; details: for kcat/Km fold increase over FhCL1 / kcat/Km fold lower than FhCL1: FhCL3 compared to FhCL1; for fold better cleavage efficiency of FhCL3 than FhCL2: FhCL3 compared to FhCL2
Method: (§1) Initial rates were obtained at 37°C over a range of substrate concentrations spanning Km values (0.2–200 µM) and at fixed enzyme concentrations (0.5–5 nM). Assays were performed in 100 mM sodium phosphate buffer (pH 6.0) containing 1 mM DTT and 1 mM EDTA. Rate constants for the inactivation of the Fasciola enzymes by Z-Phe-Ala-CHN2 and cathepsin K inhibitor II were determined from progress curves in the presence of substrate as previously described.

FhCL2 [2] = target: T2, FhCL2 (Fasciola hepatica, UniProt Q7JNQ8); test: Hydrolysis of fluorogenic peptidyl-NHMec substrates by recombinant FhCL2; type: biochemical; details: FhCL2 compared to FhCL1
Method: as §1

FhCL1 = target: T3, FhCL1 (Fasciola hepatica, UniProt Q7JNQ9); test: Inactivation of recombinant FhCL1 by inhibitors (progress curves in presence of substrate); type: biochemical; details: for Ki: FhCL1
T3 construct: His tag (inferred from Ni-NTA purification) (C); made in house; host or cells: Pichia pastoris
Method: as §1

FhCL3 [3] = target: T1, FhCL3; test: Inactivation of recombinant FhCL3 by inhibitors (progress curves in presence of substrate); type: biochemical
Method: as §1

FhCL2 [4] = target: T2, FhCL2; test: Inactivation of recombinant FhCL2 by inhibitors (progress curves in presence of substrate); type: biochemical
Method: as §1

[5] = system: Cc1cc(=O)oc2cc(NC(=O)[C@H](CCCCN)NC(=O)[C@H](CC(C)C)NC(=O)[C@@H](NC(=O)OC(C)(C)C)C(C)C)ccc12; test: Hydrolysis of fluorogenic peptidyl-NHMec substrates by recombinant FhCL1; type: biochemical, Fasciola hepatica; details: other: FhCL1, pH 6.0, 37°C
Method: as §1

[6] = system: Cc1cc(=O)oc2cc(NC(=O)[C@H](CCCNC(=N)N)NC(=O)[C@@H](NC(=O)[C@@H](NC(=O)OCc3ccccc3)C(C)C)C(C)C)ccc12; test: as above; type: biochemical, Fasciola hepatica; details: other: FhCL1, pH 6.0, 37°C
Method: as §1

[7] = system: Cc1cc(=O)oc2cc(NC(=O)[C@H](CCCNC(=N)N)NC(=O)[C@@H]3CCCN3C(=O)CNC(=O)[C@H](C)NC(=O)OC(C)(C)C)ccc12; test: as above; type: biochemical, Fasciola hepatica; details: other: FhCL1, pH 6.0, 37°C
Method: as §1

[8] = system: Cc1ccc(S(=O)(=O)NCC(=O)N2CCC[C@H]2C(=O)N[C@@H](CCCCN)C(=O)Nc2ccc3c(C)cc(=O)oc3c2)cc1; test: as above; type: biochemical, Fasciola hepatica; details: other: FhCL1, pH 6.0, 37°C
Method: as §1

[9] = system: Cc1ccc(S(=O)(=O)NCC(=O)N2CCC[C@H]2C(=O)N[C@@H](CCCNC(=N)N)C(=O)Nc2ccc3c(C)cc(=O)oc3c2)cc1; test: as above; type: biochemical, Fasciola hepatica; details: other: FhCL1, pH 6.0, 37°C
Method: as §1

[10] = system: Cc1cc(=O)oc2cc(NC(=O)[C@H](CCCNC(=N)N)NC(=O)[C@H](Cc3ccccc3)NC(=O)OCc3ccccc3)ccc12; test: as above; type: biochemical, Fasciola hepatica; details: other: FhCL1, pH 6.0, 37°C
Method: as §1

[11] = system: Cc1cc(=O)oc2cc(NC(=O)[C@H](CCCNC(=N)N)NC(=O)[C@H](CC(C)C)NC(=O)OCc3ccccc3)ccc12; test: as above; type: biochemical, Fasciola hepatica; details: other: FhCL1, pH 6.0, 37°C
Method: as §1

[12] = system: Cc1cc(=O)oc2cc(NC(=O)[C@H](CCCNC(=N)N)NC(=O)[C@@H]3CCCN3C(=O)[C@@H](NC(=O)OC(C)(C)C)C(C)C)ccc12; test: as above; type: biochemical, Fasciola hepatica; details: other: FhCL1, pH 6.0, 37°C
Method: as §1

T3 sequence (Q7JNQ9 entry or part of it): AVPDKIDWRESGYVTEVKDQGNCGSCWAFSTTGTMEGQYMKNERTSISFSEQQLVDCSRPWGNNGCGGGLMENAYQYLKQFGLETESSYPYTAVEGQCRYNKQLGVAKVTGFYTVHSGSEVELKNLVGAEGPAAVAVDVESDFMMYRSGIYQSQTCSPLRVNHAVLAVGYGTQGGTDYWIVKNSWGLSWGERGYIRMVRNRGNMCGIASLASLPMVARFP
T1 sequence (B3TM67 entry or part of it): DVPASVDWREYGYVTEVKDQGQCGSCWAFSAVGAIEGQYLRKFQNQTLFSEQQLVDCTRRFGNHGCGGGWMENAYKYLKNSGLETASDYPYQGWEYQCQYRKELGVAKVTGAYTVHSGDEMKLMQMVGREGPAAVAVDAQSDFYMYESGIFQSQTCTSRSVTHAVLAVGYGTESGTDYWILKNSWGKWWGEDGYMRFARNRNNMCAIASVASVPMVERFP
T2 sequence (Q7JNQ8 entry or part of it): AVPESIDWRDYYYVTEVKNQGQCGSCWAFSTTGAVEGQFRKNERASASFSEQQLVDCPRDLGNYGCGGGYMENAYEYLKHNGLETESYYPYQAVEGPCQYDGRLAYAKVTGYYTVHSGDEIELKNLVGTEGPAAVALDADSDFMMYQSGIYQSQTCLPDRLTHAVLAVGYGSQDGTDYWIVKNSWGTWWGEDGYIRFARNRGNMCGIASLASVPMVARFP

With `Cc1cc(=O)oc2cc(NC(=O)[C@H](CCCN=C(N)N)NC(=O)[C@@H]3CCCN3C(=O)CNC(=O)[C@H](C)NC(=O)OC(C)(C)C)ccc12` [Boc-AGPR-NHMec, Boc-Ala-Gly-Pro-Arg-NHMec] (Boc-AGPR-{AMC}) the “kcat/Km fold increase over FhCL1” value (FhCL3 [1]) was 90 fold and the “kcat/Km fold increase over FhCL1” value (FhCL2 [2]) was 86 fold.

With `Cc1cc(=O)oc2cc(NC(=O)[C@H](CCCN=C(N)N)NC(=O)[C@@H]3CCCN3C(=O)[C@@H](NC(=O)OC(C)(C)C)C(C)C)ccc12` [Boc-VPR-NHMec, Boc-Val-Pro-Arg-NHMec] (Boc-Val-Pro-Arg-{AMC}) the “kcat/Km fold increase over FhCL1” value (FhCL3 [1]) was 3 fold and the “kcat/Km fold increase over FhCL1” value (FhCL2 [2]) was 44 fold.

`CC(C)C[C@H](NC(=O)OCc1ccccc1)C(=O)NNC(=O)NNC(=O)[C@H](CC(C)C)NC(=O)[C@H](Cc1ccccc1)NC(=O)OC(C)(C)C` [Cathepsin K inhibitor II, Z-LNHNHCONHNHLF-Boc] was tested, and the Ki (FhCL1; Ki(app)) was 12.2 nM, the Ki (FhCL1; Ki) was 0.63 nM and the “fold less effective against FhCL3 compared to FhCL1” value (FhCL3 [3]; FhCL3 vs FhCL1) was 14 fold. The “fold less effective against FhCL3 compared to FhCL2” value (FhCL3 [3]; FhCL3 vs FhCL2) was 20 fold, the Ki (FhCL2 [4]) was 0.46 nM and the Ki (FhCL2 [4]; read-out: Ki(app)) was 4.8 nM.

With `Cc1ccc(S(=O)(=O)NCC(=O)N2CCC[C@H]2C(=O)N[C@@H](CCCCN)C(=O)Nc2ccc3c(C)cc(=O)oc3c2)cc1` [Tos-GPK-NHMec, Tos-Gly-Pro-Lys-NHMec] (Tos-Gly-Pro-Lys-{AMC}) the “kcat/Km fold increase over FhCL1” value (FhCL3 [1]) was 60 fold, the “fold better cleavage efficiency of FhCL3 than FhCL2” value (FhCL3 [1]) was 3 fold and the “kcat/Km fold increase over FhCL1” value (FhCL2 [2]) was 22 fold.

In the case of `Cc1ccc(S(=O)(=O)NCC(=O)N2CCC[C@H]2C(=O)N[C@@H](CCCN=C(N)N)C(=O)Nc2ccc3c(C)cc(=O)oc3c2)cc1` [Tos-GPR-NHMec, Tos-Gly-Pro-Arg-NHMec] (Tos-Gly-Pro-Arg-{AMC}), the “kcat/Km fold increase over FhCL1” value (FhCL3 [1]) is reported as 142 fold, the “fold better cleavage efficiency of FhCL3 than FhCL2” value (FhCL3 [1]) is reported as 5 fold and the “kcat/Km fold increase over FhCL1” value (FhCL2 [2]) is reported as 28 fold.

For `Cc1cc(=O)oc2cc(NC(=O)[C@H](CCCN=C(N)N)NC(=O)[C@H](Cc3ccccc3)NC(=O)OCc3ccccc3)ccc12` [Z-FR-NHMec, Z-Phe-Arg-NHMec] (Cbz-Phe-Arg-{AMC}), the “kcat/Km fold lower than FhCL1” value (FhCL3 [1]) was 65 fold and the “kcat/Km fold lower than FhCL1” value (FhCL2 [2]) was 6 fold.

With `Cc1cc(=O)oc2cc(NC(=O)[C@H](CCCN=C(N)N)NC(=O)[C@H](CC(C)C)NC(=O)OCc3ccccc3)ccc12` [Z-LR-NHMec, Z-Leu-Arg-NHMec] the “kcat/Km fold lower than FhCL1” value (FhCL3 [1]) was 66 fold and the “kcat/Km fold lower than FhCL1” value (FhCL2 [2]) was 3.5 fold.

With `C[C@H](NC(=O)[C@H](Cc1ccccc1)NC(=O)OCc1ccccc1)C(=O)C=[N+]=[N-]` [Z-Phe-Ala-CHN2] the “rate of inactivation of FhCL1, fold higher than that of FhCL2” value (FhCL1; FhCL1 compared to FhCL2) was ~2 fold, the Ki (FhCL1; Ki(app)) was 31.4 nM and the Ki (FhCL1; Ki) was 1.62 nM. For the same compound, the “rate of inactivation of FhCL3, fold lower” value (FhCL3 [3]; FhCL3 in contrast to FhCL1 and FhCL2) was 20 fold, the Ki (FhCL2 [4]) was 5.32 nM and the Ki (FhCL2 [4]; read-out: Ki(app)) was 55.2 nM.

With FhCL1 (Fasciola hepatica) the Km [5] was 2.5 µM, the kcat [5] was 0.14 s⁻¹ and the kcat/Km [5] was 54300 M⁻¹ s⁻¹. It also gave a Km [6] of 2.84 µM, a kcat [6] of 0.021 s⁻¹ and a kcat/Km [6] of 7460 M⁻¹ s⁻¹. It also gave a Km [7] of 18.8 µM, a kcat [7] of 0.01 s⁻¹ and a kcat/Km [7] of 674 M⁻¹ s⁻¹. For the same compound, the Km [8] was 17.42 µM, the kcat [8] was 0.01 s⁻¹ and the kcat/Km [8] was 612 M⁻¹ s⁻¹. It also gave a Km [9] of 27.2 µM, a kcat [9] of 0.02 s⁻¹ and a kcat/Km [9] of 672 M⁻¹ s⁻¹. The Km [10] was 1.9 µM, the kcat [10] was 0.12 s⁻¹ and the kcat/Km [10] was 64900 M⁻¹ s⁻¹. For the same compound, the Km [11] was 1.09 µM, the kcat [11] was 1.63 s⁻¹ and the kcat/Km [11] was 1.49e+06 M⁻¹ s⁻¹. The Km [12] was 22 µM, the kcat [12] was 0.01 s⁻¹ and the kcat/Km [12] was 479 M⁻¹ s⁻¹.
